Patent publication US5629296A, “9A-N-(N'-carbamoyl)and 9A-N-(N'-thiocarbamoyl) derivatives of 9-deoxo-9A-aza-9A-homoerythromycin A” (Pliva farmaceutiska, kemijska, prehrambena i kozmeticka …, priority 1993, dated 1997)
Values after ≈ are worked out from the molar mass of the structure shown.

Experiments:
Assay in all cases: MIC, dilution method on microplates (NCCLS M7-A2)
Assay type in all cases: cell-based
B. cererus ATCC 11778 = test system: B. cererus ATCC 11778
Protocol: (§1) Minimum inhibitory concentrations (MIC, mcg/ml) are determined by dilution method on microplates according to the recommendation of National Committee for Clinical Laboratory Standards (NCCLS, M7-A2). It is evident from Table 1 that standard strains and clinical isolates tested are susceptible to newly synthetised compounds. Thus they may be used for disinfection of rooms, chirurgical instruments and humans and as therapeutic agents in the treatment of infective diseases in animals, especially mammals and humans, caused by a broad spectrum of Gram-positive bacteria, mycoplasmas and generally patogenic microorganisms that are susceptible to the compounds of the formula (I). To this purpose the above compounds and pharmaceutically acceptable acid addition salts thereof may be administered orally in usual doses from 0.2 mg/kg body weight daily to about 250 mg/kg/day, most preferably from 5-50 mg/kg/day, or parenterally in the form of subcutaneous and intramuscular injections.

B. pumilus NCTC 8241 = settings: Bacillus pumilus, NCTC8241
Protocol: as §1

[1] = test system: Bacillus subtilis NCTC 8236; settings: NCTC8236
Protocol: as §1

[2] = test system: Esherichia coli ATCC 10536
Protocol: as §1

[3] = test system: Micrococcus flavus ATCC 10240; settings: ATCC10240
Protocol: as §1

[4] = test system: Pseudomonas aeruginosa NCTC 10490; settings: NCTC10490
Protocol: as §1

Salmonella Panama 6117 = settings: Salmonella enterica, PANAMA6117
Protocol: as §1

[5] = test system: Staphylococcus aureus ATCC 6538P; settings: ATCC6538P
Protocol: as §1

[6] = test system: Staphylococcus epidermidis ATCC 12228; settings: ATCC12228
Protocol: as §1

[7] = test system: Streptococcus faecalis ATCC 8043; settings: Enterococcus faecalis, ATCC8043
Protocol: as §1

[8] = test system: BHS-A Streptococcus pyogenes J-21
Protocol: as §1

[9] = test system: BHS-B Streptococcus Agalactiae J-22
Protocol: as §1

MIC (B. cererus ATCC 11778) | MIC (B. pumilus NCTC 8241) | MIC [1] | MIC [2] | MIC [3] | MIC [4] | MIC (Salmonella Panama 6117) | MIC [5] | MIC [6] | MIC [7] | MIC [8] | MIC [9] | SMILES
6.25 µg/mL (≈ 7.62 µM) | 6.25 µg/mL (≈ 7.62 µM) | 1.56 µg/mL (≈ 1.9 µM) | 12.5 µg/mL (≈ 15.2 µM) | 3.12 µg/mL (≈ 3.8 µM) | 25 µg/mL (≈ 30.5 µM) | 6.25 µg/mL (≈ 7.62 µM) | 1.56 µg/mL (≈ 1.9 µM) | 6.25 µg/mL (≈ 7.62 µM) | 3.12 µg/mL (≈ 3.8 µM) | – | – | CC[C@H]1OC(=O)[C@H](C)[C@@H](O[C@H]2C[C@@](C)(OC)[C@@H](O)[C@H](C)O2)[C@H](C)[C@@H](O[C@@H]2O[C@H](C)C[C@H](N(C)C)[C@H]2O)[C@](C)(O)C[C@@H](C)CN(C(=O)NC(C)C)[C@H](C)[C@@H](O)[C@]1(C)O [Example 1, 9-deoxo-9a-N-(N'-isopropyl-carbamoyl)-9a-aza-9a-homoerythromycin A]
12.5 µg/mL (≈ 14.6 µM) | 6.25 µg/mL (≈ 7.32 µM) | 6.25 µg/mL (≈ 7.32 µM) | 12.5 µg/mL (≈ 14.6 µM) | 6.25 µg/mL (≈ 7.32 µM) | 50 µg/mL (≈ 58.5 µM) | 25 µg/mL (≈ 29.3 µM) | 6.25 µg/mL (≈ 7.32 µM) | 3.12 µg/mL (≈ 3.65 µM) | 3.12 µg/mL (≈ 3.65 µM) | 3.12 µg/mL (≈ 3.65 µM) | 1.56 µg/mL (≈ 1.83 µM) | CC[C@H]1OC(=O)[C@H](C)[C@@H](O[C@H]2C[C@@](C)(OC)[C@@H](O)[C@H](C)O2)[C@H](C)[C@@H](O[C@@H]2O[C@H](C)C[C@H](N(C)C)[C@H]2O)[C@](C)(O)C[C@@H](C)CN(C(=O)Nc2ccccc2)[C@H](C)[C@@H](O)[C@]1(C)O [Example 5, 9-deoxo-9a-N-(N'-phenyl-carbamoyl)-9a-aza-9a-homoerythromycin A]
12.5 µg/mL (≈ 14.6 µM) | 12.5 µg/mL (≈ 14.6 µM) | 25 µg/mL (≈ 29.2 µM) | 12.5 µg/mL (≈ 14.6 µM) | 12.5 µg/mL (≈ 14.6 µM) | 50 µg/mL (≈ 58.5 µM) | 25 µg/mL (≈ 29.2 µM) | 12.5 µg/mL (≈ 14.6 µM) | 25 µg/mL (≈ 29.2 µM) | 6.25 µg/mL (≈ 7.31 µM) | 12.5 µg/mL (≈ 14.6 µM) | 12.5 µg/mL (≈ 14.6 µM) | CC[C@H]1OC(=O)[C@H](C)[C@@H](O[C@H]2C[C@@](C)(OC)[C@@H](O)[C@H](C)O2)[C@H](C)[C@@H](O[C@@H]2O[C@H](C)C[C@H](N(C)C)[C@H]2O)[C@](C)(O)C[C@@H](C)CN(C(=O)Nc2ccncc2)[C@H](C)[C@@H](O)[C@]1(C)O [Example 4, 9-deoxo-9a-N-[N'-(4-pyridyl)-carbamoyl]-9a-aza-9a-homoerythromycin A]
6.25 µg/mL (≈ 7.07 µM) | 1.56 µg/mL (≈ 1.76 µM) | 1.56 µg/mL (≈ 1.76 µM) | 12.5 µg/mL (≈ 14.1 µM) | 1.56 µg/mL (≈ 1.76 µM) | 50 µg/mL (≈ 56.5 µM) | > 100 µg/mL | 3.12 µg/mL (≈ 3.53 µM) | 6.25 µg/mL (≈ 7.07 µM) | 1.56 µg/mL (≈ 1.76 µM) | – | – | CC[C@H]1OC(=O)[C@H](C)[C@@H](O[C@H]2C[C@@](C)(OC)[C@@H](O)[C@H](C)O2)[C@H](C)[C@@H](O[C@@H]2O[C@H](C)C[C@H](N(C)C)[C@H]2O)[C@](C)(O)C[C@@H](C)CN(C(=S)NCc2ccccc2)[C@H](C)[C@@H](O)[C@]1(C)O [Example 7, 9-deoxo-9a-N-(N'-benzyl-thiocarbamoyl)-9a-aza-9a-homoerythromycin A]
3.12 µg/mL (≈ 4.25 µM) | 12.5 µg/mL (≈ 17 µM) | 12.5 µg/mL (≈ 17 µM) | 3.12 µg/mL (≈ 4.25 µM) | 1.56 µg/mL (≈ 2.12 µM) | 25 µg/mL (≈ 34 µM) | 3.12 µg/mL (≈ 4.25 µM) | 3.12 µg/mL (≈ 4.25 µM) | 3.12 µg/mL (≈ 4.25 µM) | 3.12 µg/mL (≈ 4.25 µM) | 3.12 µg/mL (≈ 4.25 µM) | 1.56 µg/mL (≈ 2.12 µM) | CC[C@H]1OC(=O)[C@H](C)[C@@H](O[C@H]2C[C@@](C)(OC)[C@@H](O)[C@H](C)O2)[C@H](C)[C@@H](O[C@@H]2O[C@H](C)C[C@H](N(C)C)[C@H]2O)[C@](C)(O)C[C@@H](C)CN[C@H](C)[C@@H](O)[C@]1(C)O [Example 9a-NH, 9-deoxo-9a-aza-9a-homoerythromycin A]
6.25 µg/mL (≈ 7.2 µM) | 3.12 µg/mL (≈ 3.59 µM) | 3.12 µg/mL (≈ 3.59 µM) | 25 µg/mL (≈ 28.8 µM) | 3.12 µg/mL (≈ 3.59 µM) | 50 µg/mL (≈ 57.6 µM) | > 100 µg/mL | 3.12 µg/mL (≈ 3.59 µM) | 6.25 µg/mL (≈ 7.2 µM) | 3.12 µg/mL (≈ 3.59 µM) | – | – | CC[C@H]1OC(=O)[C@H](C)[C@@H](O[C@H]2C[C@@](C)(OC)[C@@H](O)[C@H](C)O2)[C@H](C)[C@@H](O[C@@H]2O[C@H](C)C[C@H](N(C)C)[C@H]2O)[C@](C)(O)C[C@@H](C)CN(C(=O)NCc2ccccc2)[C@H](C)[C@@H](O)[C@]1(C)O [Example 6, 9-deoxo-9a-N-(N'-benzyl-carbamoyl)-9a-aza-9a-homoerythromycin A]
